Test results taken from ChEMBL document CHEMBL1201862, “PubChem BioAssay data set” (2004).
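Exposure lasted 48 hours, with cells grown in 96-well plates and compounds tested at five concentrations. Abbreviation: GI50, concentration required for 50% inhibition of growth.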 Activity calls are given as the source filed them. Rule as the data show it: active = GI50 up to about 1.1 µM and inactive = higher.

Tests used:
Assay in all cases: inhibition of tumour cell growth, NCI panel, 48 h
HCT-15 = system: HCT-15
COLO 205 = system: COLO 205
SN12C = system: SN12C
UACC-257 = system: UACC-257
MCF7 = system: MCF7
SNB-19 = system: SNB-19
SK-MEL-2 = system: SK-MEL-2
PC-3 = system: PC-3
IGROV-1 = system: IGROV-1
MDA-MB-231 = system: MDA-MB-231
M14 = system: M14
SF-268 = system: SF-268
EKVX = system: EKVX
T47D = system: T47D
NCI-H23 = system: NCI-H23
HCT-116 = system: HCT-116
HCC 2998 = system: HCC 2998
UACC-62 = system: UACC-62
A498 = system: A498
SNB-75 = system: SNB-75

## O=C(CCc1ccc(O)cc1)NCCc1ccc(O)cc1
HCT-15
  GI50: > 100 µM
COLO 205
  GI50: > 100 µM (inactive)
SN12C
  GI50: > 100 µM (inactive)
UACC-257
  GI50: > 100 µM (inactive)
MCF7
  GI50: > 100 µM (inactive)
SNB-19
  GI50: > 100 µM (inactive)
SK-MEL-2
  GI50: > 100 µM (inactive)
PC-3
  GI50: > 100 µM (inactive)
IGROV-1
  GI50: > 100 µM (inactive)
MDA-MB-231
  GI50: > 100 µM (inactive)
M14
  GI50: > 100 µM (inactive)
SF-268
  GI50: > 100 µM (inactive)
EKVX
  GI50: > 100 µM (inactive)
T47D
  GI50: > 100 µM (inactive)
NCI-H23
  GI50: > 100 µM (inactive)
HCT-116
  GI50: > 100 µM (inactive)
HCC 2998
  GI50: > 100 µM (inactive)
UACC-62
  GI50: > 100 µM (inactive)
A498
  GI50: > 100 µM (inactive)

## OCC1OC(O)C(/N=C\c2ccc3c(c2)OCO3)C(O)C1O (stereo not drawn)
HCT-15
  GI50: > 100 µM
COLO 205
  GI50: > 100 µM (inactive)
UACC-257
  GI50: > 100 µM (inactive)
MCF7
  GI50: > 100 µM (inactive)
SNB-19
  GI50: > 100 µM (inactive)
SK-MEL-2
  GI50: > 100 µM (inactive)
SNB-75
  GI50: > 100 µM (inactive)
PC-3
  GI50: > 100 µM (inactive)
IGROV-1
  GI50: > 100 µM (inactive)
MDA-MB-231
  GI50: > 100 µM (inactive)
M14
  GI50: > 100 µM (inactive)
SF-268
  GI50: > 100 µM (inactive)
EKVX
  GI50: > 65.3 µM (inactive)
T47D
  GI50: > 100 µM (inactive)
NCI-H23
  GI50: > 100 µM (inactive)
HCT-116
  GI50: > 100 µM (inactive)
HCC 2998
  GI50: > 100 µM (inactive)
UACC-62
  GI50: > 100 µM (inactive)
A498
  GI50: > 100 µM (inactive)

## COC1CC2C=CC3C4OC2(/C(C)=C/C(C)C(C(C)O)OC1=O)C3C(O)C(C)C4OC(=O)c1ccc[nH]1 (stereo not drawn)
HCT-15
  GI50: 92.5 µM
COLO 205
  GI50: > 100 µM (inactive)
SN12C
  GI50: > 100 µM (inactive)
UACC-257
  GI50: 57.8 µM (inactive)
MCF7
  GI50: 94.4 µM (inactive)
SNB-19
  GI50: > 100 µM (inactive)
SK-MEL-2
  GI50: > 100 µM (inactive)
PC-3
  GI50: 46.6 µM (inactive)
IGROV-1
  GI50: > 100 µM (inactive)
MDA-MB-231
  GI50: > 100 µM (inactive)
M14
  GI50: > 100 µM (inactive)
SF-268
  GI50: > 100 µM (inactive)
EKVX
  GI50: 63.4 µM (inactive)
T47D
  GI50: > 100 µM (inactive)
NCI-H23
  GI50: > 100 µM (inactive)
HCT-116
  GI50: 49.3 µM (inactive)
HCC 2998
  GI50: 74.6 µM (inactive)
UACC-62
  GI50: > 100 µM (inactive)
A498
  GI50: > 100 µM (inactive)

## O=C(Nc1ccc2ccccc2c1)Nn1cnnc1
HCT-15
  GI50: > 100 µM
COLO 205
  GI50: > 100 µM (inactive)
UACC-257
  GI50: > 100 µM (inactive)
MCF7
  GI50: > 100 µM (inactive)
SNB-19
  GI50: > 100 µM (inactive)
SK-MEL-2
  GI50: > 100 µM (inactive)
SNB-75
  GI50: > 100 µM (inactive)
PC-3
  GI50: > 100 µM (inactive)
IGROV-1
  GI50: > 100 µM (inactive)
MDA-MB-231
  GI50: > 100 µM (inactive)
M14
  GI50: > 100 µM (inactive)
SF-268
  GI50: > 100 µM (inactive)
EKVX
  GI50: > 100 µM (inactive)
T47D
  GI50: > 100 µM (inactive)
NCI-H23
  GI50: > 100 µM (inactive)
HCT-116
  GI50: > 100 µM (inactive)
HCC 2998
  GI50: > 100 µM (inactive)
UACC-62
  GI50: > 100 µM (inactive)
A498
  GI50: > 100 µM (inactive)

## CCCCCCCCCCCCP(=O)(O)OCC(N)C(=O)O (stereo not drawn)
HCT-15
  GI50: 17.5 µM
COLO 205
  GI50: 45.8 µM (inactive)
SN12C
  GI50: 18.9 µM (inactive)
UACC-257
  GI50: > 100 µM (inactive)
MCF7
  GI50: 42.1 µM (inactive)
SNB-19
  GI50: 16.6 µM (inactive)
SK-MEL-2
  GI50: 27.9 µM (inactive)
SNB-75
  GI50: 11.4 µM (inactive)
PC-3
  GI50: 16 µM (inactive)
IGROV-1
  GI50: 30.1 µM (inactive)
MDA-MB-231
  GI50: 16.4 µM (inactive)
M14
  GI50: 48.8 µM (inactive)
SF-268
  GI50: 23.9 µM (inactive)
EKVX
  GI50: 93.3 µM (inactive)
T47D
  GI50: > 100 µM (inactive)
NCI-H23
  GI50: 48.9 µM (inactive)
HCT-116
  GI50: 13.3 µM (inactive)
HCC 2998
  GI50: 30.5 µM (inactive)
A498
  GI50: 23.5 µM (inactive)

## COC(=O)/C(=N\NC(=S)NN)C(C(=O)OC)C(=O)C(=O)Nc1cccc(C(F)(F)F)c1 (stereo not drawn)
HCT-15
  GI50: > 100 µM
SN12C
  GI50: > 100 µM (inactive)
UACC-257
  GI50: > 100 µM (inactive)
MCF7
  GI50: > 100 µM (inactive)
SNB-19
  GI50: > 100 µM (inactive)
SK-MEL-2
  GI50: > 100 µM (inactive)
SNB-75
  GI50: > 100 µM (inactive)
PC-3
  GI50: > 100 µM (inactive)
IGROV-1
  GI50: > 100 µM (inactive)
MDA-MB-231
  GI50: > 100 µM (inactive)
M14
  GI50: > 100 µM (inactive)
SF-268
  GI50: > 100 µM (inactive)
EKVX
  GI50: > 100 µM (inactive)
T47D
  GI50: > 100 µM (inactive)
NCI-H23
  GI50: > 100 µM (inactive)
HCT-116
  GI50: > 100 µM (inactive)
HCC 2998
  GI50: > 100 µM (inactive)
UACC-62
  GI50: > 100 µM (inactive)
A498
  GI50: > 100 µM (inactive)

## CC(C)=C[C@H]1CCC2(OCCO2)[C@]1(C)COCc1ccccc1
HCT-15
  GI50: 39.5 µM
COLO 205
  GI50: 17.6 µM (inactive)
SN12C
  GI50: 24.5 µM (inactive)
UACC-257
  GI50: 16.4 µM (inactive)
MCF7
  GI50: 41.3 µM (inactive)
SNB-19
  GI50: 37.7 µM (inactive)
SK-MEL-2
  GI50: 25.5 µM (inactive)
SNB-75
  GI50: 45.4 µM (inactive)
PC-3
  GI50: 39.9 µM (inactive)
MDA-MB-231
  GI50: 19.7 µM (inactive)
M14
  GI50: 33.3 µM (inactive)
SF-268
  GI50: 48.9 µM (inactive)
EKVX
  GI50: 33 µM (inactive)
T47D
  GI50: 35.2 µM (inactive)
NCI-H23
  GI50: 25.8 µM (inactive)
HCT-116
  GI50: 29.9 µM (inactive)
HCC 2998
  GI50: 16.4 µM (inactive)
A498
  GI50: 23.7 µM (inactive)

## COC(=O)CC(c1ccccc1)C(C#N)(OP1(=O)OC(c2ccccc2)C(C)N1C)c1ccccc1 (stereo not drawn)
HCT-15
  GI50: 41.2 µM
COLO 205
  GI50: 21.3 µM (inactive)
SN12C
  GI50: 30.1 µM (inactive)
UACC-257
  GI50: 34.9 µM (inactive)
MCF7
  GI50: 37.2 µM (inactive)
SNB-19
  GI50: 73.5 µM (inactive)
SK-MEL-2
  GI50: 27.9 µM (inactive)
SNB-75
  GI50: > 100 µM (inactive)
PC-3
  GI50: 35.8 µM (inactive)
IGROV-1
  GI50: 71.9 µM (inactive)
MDA-MB-231
  GI50: > 100 µM (inactive)
M14
  GI50: 60 µM (inactive)
SF-268
  GI50: > 100 µM (inactive)
EKVX
  GI50: 77.1 µM (inactive)
T47D
  GI50: 68.2 µM (inactive)
NCI-H23
  GI50: 57.3 µM (inactive)
HCT-116
  GI50: 48.4 µM (inactive)
HCC 2998
  GI50: > 100 µM (inactive)
UACC-62
  GI50: 47.5 µM (inactive)
A498
  GI50: 39.4 µM (inactive)

## Cc1cc(C)c2c(c1)C(=O)/C(=C/c1ccccc1C(=O)O)C2
HCT-15
  GI50: 54.3 µM
SN12C
  GI50: 53.8 µM (inactive)
UACC-257
  GI50: > 100 µM (inactive)
MCF7
  GI50: 88.7 µM (inactive)
SNB-19
  GI50: 50.1 µM (inactive)
SK-MEL-2
  GI50: > 100 µM (inactive)
SNB-75
  GI50: 40 µM (inactive)
PC-3
  GI50: 43.2 µM (inactive)
IGROV-1
  GI50: > 100 µM (inactive)
MDA-MB-231
  GI50: 50.2 µM (inactive)
M14
  GI50: 90.4 µM (inactive)
SF-268
  GI50: 61.7 µM (inactive)
EKVX
  GI50: 29.1 µM (inactive)
T47D
  GI50: 39 µM (inactive)
HCT-116
  GI50: 63 µM (inactive)
HCC 2998
  GI50: 51.3 µM (inactive)
UACC-62
  GI50: 89.5 µM (inactive)
A498
  GI50: 67 µM (inactive)

## CCOc1cc(NC(C)=O)ccc1C(=O)N/N=C/c1ccco1
HCT-15
  GI50: > 100 µM
COLO 205
  GI50: 44.6 µM (inactive)
SN12C
  GI50: > 100 µM (inactive)
UACC-257
  GI50: > 100 µM (inactive)
MCF7
  GI50: 22.3 µM (inactive)
SK-MEL-2
  GI50: > 100 µM (inactive)
SNB-75
  GI50: > 100 µM (inactive)
PC-3
  GI50: > 100 µM (inactive)
IGROV-1
  GI50: 94 µM (inactive)
MDA-MB-231
  GI50: > 100 µM (inactive)
SF-268
  GI50: > 100 µM (inactive)
EKVX
  GI50: > 100 µM (inactive)
T47D
  GI50: > 100 µM (inactive)
NCI-H23
  GI50: > 100 µM (inactive)
HCT-116
  GI50: > 100 µM (inactive)
HCC 2998
  GI50: > 100 µM (inactive)
UACC-62
  GI50: 77.3 µM (inactive)
A498
  GI50: 62.8 µM (inactive)

## Cc1cc(N=C2C=C(Br)C(=O)C(Br)=C2)cc(CN(CC(=O)O)CC(=O)O)c1O
HCT-15
  GI50: > 100 µM
COLO 205
  GI50: > 100 µM (inactive)
SN12C
  GI50: > 100 µM (inactive)
UACC-257
  GI50: > 100 µM (inactive)
MCF7
  GI50: > 100 µM (inactive)
SNB-19
  GI50: > 100 µM (inactive)
SK-MEL-2
  GI50: > 100 µM (inactive)
SNB-75
  GI50: > 100 µM (inactive)
PC-3
  GI50: > 100 µM (inactive)
IGROV-1
  GI50: > 100 µM (inactive)
MDA-MB-231
  GI50: > 100 µM (inactive)
M14
  GI50: > 100 µM (inactive)
SF-268
  GI50: > 100 µM (inactive)
EKVX
  GI50: > 100 µM (inactive)
T47D
  GI50: > 100 µM (inactive)
NCI-H23
  GI50: > 100 µM (inactive)
HCT-116
  GI50: > 100 µM (inactive)
HCC 2998
  GI50: > 100 µM (inactive)
UACC-62
  GI50: > 100 µM (inactive)
A498
  GI50: > 100 µM (inactive)
